The record followed here is ChEMBL document CHEMBL1147423, “Synthesis and antifungal activities of phenylenedithioureas” (2004).

A word on the MIC: it is the least concentration at which growth counts as inhibited. Low readings indicate inhibition by little substance, high ones a need for much substance.

The structures appear in SMILES notation. Converted amounts (≈) assume the structure as drawn.

Assay [1] deals with Escherichia coli. Nature of the assay: Minimum inhibitory concentration against Escherichia coli ATCC 25853. The class given is functional.
Assay [2] concerns Candida albicans. Briefly: Minimum inhibitory concentration against Candida albicans ATCC 10231. Type of assay: functional.
Assay [3] has as its system Arthroderma uncinatum. Nature of the assay: Minimum inhibitory concentration against Trichophyton ajelloi. Type of assay: functional.
The subject of assay [4] is Pseudomonas aeruginosa. Nature of the assay: Minimum inhibitory concentration against Pseudomonas aeruginosae ATCC 27853. The class given is functional.
The test system of assay [5] is Trichophyton benhamiae. Nature of the assay: Minimum inhibitory concentration against Trichophyton mentagrophytes. Type of assay: functional, Arthroderma benhamiae.
Assay [6] concerns Aspergillus niger. Nature of the assay: Minimum inhibitory concentration against Aspergillus niger. The class given is functional.
The test system of assay [7] is Nannizzia nana. Nature of the assay: Minimum inhibitory concentration against Microsporum nanum. Type of assay: functional.
Assay [8] deals with Staphylococcus aureus. Briefly: Minimum inhibitory concentration Staphylococcus aureus ATCC 29213. The class given is functional.
The subject of assay [9] is Nannizzia gypsea. Briefly: Minimum inhibitory concentration Microsporum gypseum. Type of assay: functional.
Assay [10] has as its system Enterococcus faecalis. Briefly: Minimum inhibitory concentration against Streptococcus faecalis ATCC 29212. The class given is functional.
The test system of assay [11] is Paraphyton cookei. Briefly: Minimum inhibitory concentration against Microsporum cookei. The class given is functional.
The subject of assay [12] is Aspergillus flavus. Briefly: Minimum inhibitory concentration against Aspergillus flavus. Type of assay: functional.

Regarding `O=C(O)c1ccc(/N=C(\S)Nc2cccc(/N=C(/S)Nc3ccc(C(=O)O)cc3)c2)cc1`, the MIC in [1] is greater than 512 µg/mL; in assay [2], greater than 512 µg/mL; in [3], 64 µg/mL (≈ 137 µM); in [4] it was 512 µg/mL (≈ 1100 µM); in assay [5] it was 64 µg/mL (≈ 137 µM); in assay [6] it was no less than 512 µg/mL. In addition, the MIC was 64 µg/mL (≈ 137 µM) in [7]; 256 µg/mL (≈ 549 µM) in assay [8]; 64 µg/mL (≈ 137 µM) in [9]; 512 µg/mL (≈ 1100 µM) in assay [10]; 32 µg/mL (≈ 68.6 µM) in [11]; no less than 512 µg/mL in assay [12].

Consider `CCOC(=O)c1ccc(/N=C(\S)Nc2ccc(/N=C(/S)Nc3ccc(C(=O)OCC)c(O)c3)cc2)cc1O`, for which the MIC in assay [1] is greater than 512 µg/mL; in [2] it was greater than 512 µg/mL; in [3], greater than 512 µg/mL; in [4], 512 µg/mL (≈ 923 µM); in assay [5] it was greater than 512 µg/mL; in assay [6], no less than 512 µg/mL. Moreover, the MIC in assay [7] is 128 µg/mL (≈ 231 µM); in assay [8] it was greater than 512 µg/mL; in assay [9] it was 256 µg/mL (≈ 462 µM); in assay [10] it was 512 µg/mL (≈ 923 µM); in assay [11], 256 µg/mL (≈ 462 µM); in assay [12], no less than 512 µg/mL.

As for `CC(C)OC(=O)c1ccc(/N=C(\S)Nc2cccc(/N=C(/S)Nc3ccc(C(=O)OC(C)C)cc3)c2)cc1`, the MIC in assay [1] was 512 µg/mL (≈ 930 µM); in [2], greater than 512 µg/mL; in assay [3] it was 64 µg/mL (≈ 116 µM); in assay [4], greater than 512 µg/mL; in assay [5], 32 µg/mL (≈ 58.1 µM); in [6] it was no less than 512 µg/mL. The minimum inhibitory concentration (MIC) in assay [7] is 8 µg/mL (≈ 14.5 µM); in assay [8], 512 µg/mL (≈ 930 µM); in [9], 64 µg/mL (≈ 116 µM); in assay [10], greater than 512 µg/mL; in assay [11] it was 16 µg/mL (≈ 29.1 µM); in assay [12] it was no less than 512 µg/mL.

Take `O=C(NNc1ccccc1)c1ccc(/N=C(\S)Nc2ccc(/N=C(/S)Nc3ccc(C(=O)NNc4ccccc4)c(O)c3)cc2)cc1O`: the minimum inhibitory concentration (MIC) is 512 µg/mL (≈ 754 µM) in assay [1]; 512 µg/mL (≈ 754 µM) in assay [2]; 32 µg/mL (≈ 47.1 µM) in assay [3]; 512 µg/mL (≈ 754 µM) in assay [4]; 32 µg/mL (≈ 47.1 µM) in assay [5]; no less than 512 µg/mL in [6]. Moreover, the MIC is 64 µg/mL (≈ 94.3 µM) in assay [7]; 512 µg/mL (≈ 754 µM) in [8]; 128 µg/mL (≈ 189 µM) in [9]; 512 µg/mL (≈ 754 µM) in assay [10]; 64 µg/mL (≈ 94.3 µM) in assay [11]; no less than 512 µg/mL in [12].
